Experimental data: ChEMBL document CHEMBL4257449, “New N-(2-phenyl-4-oxo-1,3-thiazolidin-3-yl)-1,2-benzothiazole-3-carboxamides and acetamides as antimicrobial agents” (2017)

Experiments:
Escherichia coli [1] = experiment: Antibacterial activity against Escherichia coli ATCC 35210 after 24 hrs by microdilution method; type: functional; conditions: ATCC 35210, 24 h
Enterobacter cloacae [2] = experiment: Antibacterial activity against Enterobacter cloacae after 24 hrs by microdilution method; type: functional
Micrococcus flavus [3] = experiment: Antibacterial activity against Micrococcus flavus ATCC 10240 after 24 hrs by microdilution method; type: functional; conditions: ATCC 10240, 24 h
Talaromyces funiculosus [4] = experiment: Fungicidal activity against Penicillium funiculosum ATCC 36839 incubated for 72 hrs followed by serial sub-cultivation for 72 hrs and measured after 72 hrs by serial dilution method; type: functional
Bacillus cereus [5] = experiment: Bactericidal activity against Bacillus cereus incubated for 24 hrs followed by serial sub-cultivation and measured after 24 hrs by microdilution method; type: functional
Salmonella typhimurium [6] = experiment: Antibacterial activity against Salmonella typhimurium ATCC 13311 after 24 hrs by microdilution method; type: functional, Salmonella enterica subsp. enterica serovar Typhimurium; conditions: Salmonella enterica, ATCC 13311, 24 h
Escherichia coli [7] = experiment: Bactericidal activity against Escherichia coli ATCC 35210 incubated for 24 hrs followed by serial sub-cultivation and measured after 24 hrs by microdilution method; type: functional
Aspergillus fumigatus [8] = experiment: Antifungal activity against Aspergillus fumigatus after 72 hrs by serial dilution method; type: functional
Candida albicans [9] = experiment: Antifungal activity against Candida albicans after 72 hrs by serial dilution method; type: functional
Micrococcus flavus [10] = experiment: Bactericidal activity against Micrococcus flavus ATCC 10240 incubated for 24 hrs followed by serial sub-cultivation and measured after 24 hrs by microdilution method; type: functional
Pseudomonas aeruginosa [11] = experiment: Bactericidal activity against Pseudomonas aeruginosa ATCC 27853 incubated for 24 hrs followed by serial sub-cultivation and measured after 24 hrs by microdilution method; type: functional
Aspergillus ochraceus [12] = experiment: Antifungal activity against Aspergillus ochraceus ATCC 12066 after 72 hrs by serial dilution method; type: functional; conditions: ATCC 12066, 72 h
Talaromyces funiculosus [13] = experiment: Antifungal activity against Penicillium funiculosum ATCC 36839 after 72 hrs by serial dilution method; type: functional; conditions: ATCC 36839, 72 h
Enterobacter cloacae [14] = experiment: Bactericidal activity against Enterobacter cloacae incubated for 24 hrs followed by serial sub-cultivation and measured after 24 hrs by microdilution method; type: functional
Aspergillus niger [15] = experiment: Fungicidal activity against Aspergillus niger ATCC 6275 incubated for 72 hrs followed by serial sub-cultivation for 72 hrs and measured after 72 hrs by serial dilution method; type: functional
Aspergillus fumigatus [16] = experiment: Fungicidal activity against Aspergillus fumigatus incubated for 72 hrs followed by serial sub-cultivation for 72 hrs and measured after 72 hrs by serial dilution method; type: functional
Trichoderma viride [17] = experiment: Fungicidal activity against Trichoderma viride IAM 5061 incubated for 72 hrs followed by serial sub-cultivation for 72 hrs and measured after 72 hrs by serial dilution method; type: functional
Aspergillus niger [18] = experiment: Antifungal activity against Aspergillus niger ATCC 6275 after 72 hrs by serial dilution method; type: functional; conditions: ATCC 6275, 72 h
Salmonella typhimurium [19] = experiment: Bactericidal activity against Salmonella typhimurium ATCC 13311 incubated for 24 hrs followed by serial sub-cultivation and measured after 24 hrs by microdilution method; type: functional, Salmonella enterica subsp. enterica serovar Typhimurium
Bacillus cereus [20] = experiment: Antibacterial activity against Bacillus cereus after 24 hrs by microdilution method; type: functional
Listeria monocytogenes [21] = experiment: Antibacterial activity against Listeria monocytogenes NCTC 7973 after 24 hrs by microdilution method; type: functional; conditions: NCTC 7973, 24 h
Staphylococcus aureus [22] = experiment: Antibacterial activity against Staphylococcus aureus ATCC 6538 after 24 hrs by microdilution method; type: functional; conditions: ATCC 6538, 24 h
Penicillium ochrochloron [23] = experiment: Fungicidal activity against Penicillium ochrochloron ATCC 9112 incubated for 72 hrs followed by serial sub-cultivation for 72 hrs and measured after 72 hrs by serial dilution method; type: functional
Candida albicans [24] = experiment: Fungicidal activity against Candida albicans incubated for 72 hrs followed by serial sub-cultivation for 72 hrs and measured after 72 hrs by serial dilution method; type: functional
Aspergillus versicolor [25] = experiment: Fungicidal activity against Aspergillus versicolor ATCC 11730 incubated for 72 hrs followed by serial sub-cultivation for 72 hrs and measured after 72 hrs by serial dilution method; type: functional
Aspergillus versicolor [26] = experiment: Antifungal activity against Aspergillus versicolor ATCC 11730 after 72 hrs by serial dilution method; type: functional; conditions: ATCC 11730, 72 h
Listeria monocytogenes [27] = experiment: Bactericidal activity against Listeria monocytogenes NCTC 7973 incubated for 24 hrs followed by serial sub-cultivation and measured after 24 hrs by microdilution method; type: functional
Staphylococcus aureus [28] = experiment: Bactericidal activity against Staphylococcus aureus ATCC 6538 incubated for 24 hrs followed by serial sub-cultivation and measured after 24 hrs by microdilution method; type: functional
Aspergillus ochraceus [29] = experiment: Fungicidal activity against Aspergillus ochraceus ATCC 12066 incubated for 72 hrs followed by serial sub-cultivation for 72 hrs and measured after 72 hrs by serial dilution method; type: functional
Penicillium ochrochloron [30] = experiment: Antifungal activity against Penicillium ochrochloron ATCC 9112 after 72 hrs by serial dilution method; type: functional; conditions: ATCC 9112, 72 h
Pseudomonas aeruginosa [31] = experiment: Antibacterial activity against Pseudomonas aeruginosa ATCC 27853 after 24 hrs by microdilution method; type: functional; conditions: ATCC 27853, 24 h
Trichoderma viride [32] = experiment: Antifungal activity against Trichoderma viride IAM 5061 after 72 hrs by serial dilution method; type: functional; conditions: IAM 5061, 72 h

O=C(NN1C(=O)CSC1c1ccccc1F)c1nsc2ccccc12 (stereo unspecified)
27 µM: MIC (Trichoderma viride [32])
214 µM: MIC (Escherichia coli [1]) | MIC (Enterobacter cloacae [2]) | MIC (Salmonella typhimurium [6]) | MIC (Bacillus cereus [20]) | MIC (Listeria monocytogenes [21]) | MIC (Staphylococcus aureus [22]) | MIC (Aspergillus versicolor [26]) | MIC (Pseudomonas aeruginosa [31])
5.4 ×10⁻² umol/ml: MFC99.5 (Trichoderma viride [17])
54 µM: MIC (Penicillium ochrochloron [30])
10.7 ×10⁻² umol/ml: MFC99.5 (Penicillium ochrochloron [23])
107 µM: MIC (Aspergillus fumigatus [8]) | MIC (Candida albicans [9]) | MIC (Talaromyces funiculosus [13]) | MIC (Aspergillus niger [18])
40.2 ×10⁻² umol/ml: MBC99.5 (Bacillus cereus [5]) | MBC99.5 (Escherichia coli [7]) | MBC99.5 (Micrococcus flavus [10]) | MBC99.5 (Pseudomonas aeruginosa [11]) | MBC99.5 (Enterobacter cloacae [14]) | MBC99.5 (Salmonella typhimurium [19]) | MFC99.5 (Aspergillus versicolor [25]) | MBC99.5 (Listeria monocytogenes [27]) | MBC99.5 (Staphylococcus aureus [28])
295 µM: MIC (Micrococcus flavus [3])
21.4 ×10⁻² umol/ml: MFC99.5 (Talaromyces funiculosus [4]) | MFC99.5 (Aspergillus niger [15]) | MFC99.5 (Aspergillus fumigatus [16]) | MFC99.5 (Candida albicans [24]) | MFC99.5 (Aspergillus ochraceus [29])
80 µM: MIC (Aspergillus ochraceus [12])

O=C(Cc1nsc2ccccc12)N/N=C/c1c(F)cccc1Cl
92.8 ×10⁻² umol/ml: MFC99.5 (Aspergillus fumigatus [16])
116 µM: MIC (Aspergillus ochraceus [12]) | MIC (Talaromyces funiculosus [13]) | MIC (Aspergillus niger [18]) | MIC (Aspergillus versicolor [26]) | MIC (Penicillium ochrochloron [30]) | MIC (Trichoderma viride [32])
96.4 ×10⁻² umol/ml: MBC99.5 (Listeria monocytogenes [27])
23.2 ×10⁻² umol/ml: MFC99.5 (Talaromyces funiculosus [4]) | MFC99.5 (Aspergillus niger [15]) | MFC99.5 (Trichoderma viride [17]) | MFC99.5 (Penicillium ochrochloron [23]) | MFC99.5 (Aspergillus versicolor [25]) | MFC99.5 (Aspergillus ochraceus [29])
482 µM: MIC (Listeria monocytogenes [21])
362 µM: MIC (Escherichia coli [1]) | MIC (Enterobacter cloacae [2]) | MIC (Micrococcus flavus [3]) | MIC (Pseudomonas aeruginosa [31])
58 ×10⁻² umol/ml: MFC99.5 (Candida albicans [24])
48.2 ×10⁻² umol/ml: MBC99.5 (Bacillus cereus [5]) | MBC99.5 (Escherichia coli [7]) | MBC99.5 (Micrococcus flavus [10]) | MBC99.5 (Pseudomonas aeruginosa [11]) | MBC99.5 (Enterobacter cloacae [14]) | MBC99.5 (Salmonella typhimurium [19]) | MBC99.5 (Staphylococcus aureus [28])
464 µM: MIC (Aspergillus fumigatus [8]) | MIC (Candida albicans [9])
241 µM: MIC (Salmonella typhimurium [6]) | MIC (Bacillus cereus [20]) | MIC (Staphylococcus aureus [22])

O=C(N/N=C/c1c(Cl)cccc1Cl)c1nsc2ccccc12
23.2 ×10⁻² umol/ml: MBC99.5 (Bacillus cereus [5]) | MBC99.5 (Escherichia coli [7]) | MBC99.5 (Micrococcus flavus [10]) | MBC99.5 (Enterobacter cloacae [14]) | MBC99.5 (Salmonella typhimurium [19])
232 µM: MIC (Aspergillus fumigatus [8]) | MIC (Candida albicans [9]) | MIC (Aspergillus ochraceus [12]) | MIC (Listeria monocytogenes [21]) | MIC (Penicillium ochrochloron [30]) | MIC (Pseudomonas aeruginosa [31])
58 µM: MIC (Staphylococcus aureus [22])
17.6 ×10⁻² umol/ml: MBC99.5 (Staphylococcus aureus [28])
58 ×10⁻² umol/ml: MFC99.5 (Talaromyces funiculosus [4]) | MFC99.5 (Aspergillus niger [15]) | MFC99.5 (Aspergillus versicolor [25])
46.4 ×10⁻² umol/ml: MBC99.5 (Pseudomonas aeruginosa [11]) | MFC99.5 (Aspergillus fumigatus [16]) | MFC99.5 (Trichoderma viride [17]) | MFC99.5 (Penicillium ochrochloron [23]) | MFC99.5 (Candida albicans [24]) | MBC99.5 (Listeria monocytogenes [27]) | MFC99.5 (Aspergillus ochraceus [29])
464 µM: MIC (Talaromyces funiculosus [13]) | MIC (Aspergillus niger [18]) | MIC (Aspergillus versicolor [26])
116 µM: MIC (Escherichia coli [1]) | MIC (Enterobacter cloacae [2]) | MIC (Micrococcus flavus [3]) | MIC (Salmonella typhimurium [6]) | MIC (Bacillus cereus [20]) | MIC (Trichoderma viride [32])
